Test results taken from the supplement of paper PMC10307832.

Compound: N[C@@H]1CCCN(c2c(/C=C3\SC(=O)NC3=O)cccc2-c2ccccc2)C1 [AZD1208] + CC(C)C[C@H](NC(=O)[C@H](Cc1ccccc1)NC(=O)c1cnccn1)B(O)O [Bortezomib] (partner 0.002 µM)
Experiment: relative viability (nuclei count vs DMSO), 5 days (fraction); higher = more cells survive
Conditions: first compound 0.08 µM
In short: (§1)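 Relative viability was taken as the ratio of nuclei in treated wells to nuclei in vehicle wells. Lung cancer cell lines in 1536-well plates received compounds by pin tool one day after seeding, either one drug alone or a fixed anchor-drug dose plus five library-drug doses (not always all listed) in √10 steps. Nuclei were counted on 4× images after 5 days of treatment, and values are medians of duplicate plates.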

Q: Which relative viability does the source give for H3255 here?
A: 0.874

Q: For COR-L23, which relative viability is on record?
A: 0.927

Q: Which relative viability does the source give for COR-L 105 here?
A: 0.712

Q: For LOU-NH91, which relative viability is on record?
A: 0.539

Q: For ChaGo-K-1, which relative viability is on record?
A: 1.21

Q: With NCI-H3122 as the cell line, how does the relative viability read?
A: 1.02

Q: For HOP-62, which relative viability is on record?
A: 0.827

Q: With LU99A as the cell line, how does the relative viability read?
A: 1.07

Q: For BEN, which relative viability is on record?
A: 0.796

Q: With HARA as the cell line, how does the relative viability read?
A: 1.09

Q: For HCC-78, which relative viability is on record?
A: 0.474

Q: Which relative viability does the source give for NCI-H441 here?
A: 0.322

Q: Which relative viability does the source give for LCLC-97TM1 here?
A: 0.671

Q: With NCI-H2023 as the cell line, how does the relative viability read?
A: 0.888

Q: With A-427 as the cell line, how does the relative viability read?
A: 1

Same assay, conditions: first compound 0.253 µM

Q: For H3255, which relative viability is on record?
A: 0.758

Q: COR-L23 was tested. Which relative viability did it give?
A: 1.11

Q: COR-L 105 was tested. Which relative viability did it give?
A: 1.01

Q: With LOU-NH91 as the cell line, how does the relative viability read?
A: 0.516

Q: Which relative viability does the source give for ChaGo-K-1 here?
A: 0.983

Q: NCI-H3122 was tested. Which relative viability did it give?
A: 1.04

Q: For HOP-62, which relative viability is on record?
A: 1.06

Q: Which relative viability does the source give for LU99A here?
A: 1.2

Q: With BEN as the cell line, how does the relative viability read?
A: 0.763

Q: HARA was tested. Which relative viability did it give?
A: 1.12

Q: Which relative viability does the source give for HCC-78 here?
A: 0.586

Q: How did the relative viability turn out when NCI-H441 was run?
A: 0.593

Q: Which relative viability does the source give for LCLC-97TM1 here?
A: 0.737

Q: For NCI-H2023, which relative viability is on record?
A: 1.02

Q: Which relative viability does the source give for A-427 here?
A: 0.939

Same assay, conditions: first compound 0.8 µM

Q: Which relative viability does the source give for H3255 here?
A: 0.667

Q: With COR-L23 as the cell line, how does the relative viability read?
A: 0.888

Q: With COR-L 105 as the cell line, how does the relative viability read?
A: 0.807

Q: LOU-NH91 was tested. Which relative viability did it give?
A: 0.564

Q: ChaGo-K-1 was tested. Which relative viability did it give?
A: 1.04

Q: NCI-H3122 was tested. Which relative viability did it give?
A: 1.04

Q: How did the relative viability turn out when HOP-62 was run?
A: 0.724

Q: LU99A was tested. Which relative viability did it give?
A: 1.27

Q: For BEN, which relative viability is on record?
A: 0.495

Q: Which relative viability does the source give for HARA here?
A: 1.08

Q: HCC-78 was tested. Which relative viability did it give?
A: 0.453

Q: NCI-H441 was tested. Which relative viability did it give?
A: 0.419

Q: How did the relative viability turn out when LCLC-97TM1 was run?
A: 0.51

Q: NCI-H2023 was tested. Which relative viability did it give?
A: 0.983

Q: How did the relative viability turn out when A-427 was run?
A: 0.963

Same assay, conditions: first compound 2.53 µM

Q: For H3255, which relative viability is on record?
A: 0.968

Q: For COR-L23, which relative viability is on record?
A: 1.02

Q: For COR-L 105, which relative viability is on record?
A: 0.544

Q: With LOU-NH91 as the cell line, how does the relative viability read?
A: 0.504

Q: Which relative viability does the source give for ChaGo-K-1 here?
A: 0.975

Q: For NCI-H3122, which relative viability is on record?
A: 1.06

Q: How did the relative viability turn out when HOP-62 was run?
A: 0.598

Q: Which relative viability does the source give for LU99A here?
A: 1.12

Q: BEN was tested. Which relative viability did it give?
A: 0.636

Q: How did the relative viability turn out when HARA was run?
A: 1.18

Q: HCC-78 was tested. Which relative viability did it give?
A: 0.475

Q: How did the relative viability turn out when NCI-H441 was run?
A: 0.455

Q: With LCLC-97TM1 as the cell line, how does the relative viability read?
A: 0.762

Q: How did the relative viability turn out when NCI-H2023 was run?
A: 0.695

Q: How did the relative viability turn out when A-427 was run?
A: 0.936

Same assay, conditions: first compound 8 µM

Q: For H3255, which relative viability is on record?
A: 0.718

Q: With COR-L23 as the cell line, how does the relative viability read?
A: 0.929

Q: With COR-L 105 as the cell line, how does the relative viability read?
A: 0.673

Q: How did the relative viability turn out when LOU-NH91 was run?
A: 0.593

Q: How did the relative viability turn out when ChaGo-K-1 was run?
A: 0.92

Q: For NCI-H3122, which relative viability is on record?
A: 1.06

Q: Which relative viability does the source give for HOP-62 here?
A: 0.507

Q: Which relative viability does the source give for LU99A here?
A: 0.904

Q: BEN was tested. Which relative viability did it give?
A: 0.475

Q: Which relative viability does the source give for HARA here?
A: 1.19

Q: How did the relative viability turn out when HCC-78 was run?
A: 0.529

Q: How did the relative viability turn out when NCI-H441 was run?
A: 0.419

Q: LCLC-97TM1 was tested. Which relative viability did it give?
A: 0.475

Q: For NCI-H2023, which relative viability is on record?
A: 0.849

Q: Which relative viability does the source give for A-427 here?
A: 0.884

Compound: CN1CCN(CC1)C2=CC(=C(C=C2)NC3=NC(=C(S3)C(=O)C4=C(C=CC=C4Cl)Cl)N)OC [XMD14-99] + Nc1nc2[nH]cc(CCc3ccc(C(=O)N[C@@H](CCC(=O)O)C(=O)O)cc3)c2c(=O)[nH]1 [Pemetrexed] (partner 0.2 µM)
Experiment: as above
Conditions: first compound 0.08 µM
In short: as §1

Q: For H3255, which relative viability is on record?
A: 0.558

Q: Which relative viability does the source give for COR-L23 here?
A: 0.192

Q: With COR-L 105 as the cell line, how does the relative viability read?
A: 1.14

Q: How did the relative viability turn out when LOU-NH91 was run?
A: 0.351

Q: For ChaGo-K-1, which relative viability is on record?
A: 0.257

Q: For NCI-H3122, which relative viability is on record?
A: 0.192

Q: For HOP-62, which relative viability is on record?
A: 0.368

Q: With LU99A as the cell line, how does the relative viability read?
A: 0.199

Q: With BEN as the cell line, how does the relative viability read?
A: 0.747

Q: Which relative viability does the source give for HARA here?
A: 0.21

Q: HCC-78 was tested. Which relative viability did it give?
A: 0.852

Q: Which relative viability does the source give for NCI-H441 here?
A: 0.257

Q: Which relative viability does the source give for LCLC-97TM1 here?
A: 0.19

Q: NCI-H2023 was tested. Which relative viability did it give?
A: 0.249

Q: For A-427, which relative viability is on record?
A: 0.952

Same assay, conditions: first compound 0.8 µM

Q: Which relative viability does the source give for H3255 here?
A: 0.526

Q: How did the relative viability turn out when COR-L23 was run?
A: 0.207

Q: COR-L 105 was tested. Which relative viability did it give?
A: 0.855

Q: Which relative viability does the source give for LOU-NH91 here?
A: 0.379

Q: For ChaGo-K-1, which relative viability is on record?
A: 0.256

Q: NCI-H3122 was tested. Which relative viability did it give?
A: 0.185

Q: For HOP-62, which relative viability is on record?
A: 0.364

Q: How did the relative viability turn out when LU99A was run?
A: 0.174

Q: How did the relative viability turn out when BEN was run?
A: 0.794

Q: How did the relative viability turn out when HARA was run?
A: 0.29

Q: Which relative viability does the source give for HCC-78 here?
A: 0.899

Q: Which relative viability does the source give for NCI-H441 here?
A: 0.289

Q: With LCLC-97TM1 as the cell line, how does the relative viability read?
A: 0.173

Q: With NCI-H2023 as the cell line, how does the relative viability read?
A: 0.249

Q: For A-427, which relative viability is on record?
A: 0.946

Same assay, conditions: first compound 2.53 µM

Q: How did the relative viability turn out when H3255 was run?
A: 0.518

Q: Which relative viability does the source give for COR-L23 here?
A: 0.166

Q: COR-L 105 was tested. Which relative viability did it give?
A: 0.965

Q: LOU-NH91 was tested. Which relative viability did it give?
A: 0.319

Q: ChaGo-K-1 was tested. Which relative viability did it give?
A: 0.263

Q: With NCI-H3122 as the cell line, how does the relative viability read?
A: 0.205

Q: Which relative viability does the source give for HOP-62 here?
A: 0.36

Q: Which relative viability does the source give for LU99A here?
A: 0.191

Q: For BEN, which relative viability is on record?
A: 0.845

Q: For HARA, which relative viability is on record?
A: 0.265

Q: HCC-78 was tested. Which relative viability did it give?
A: 0.943

Q: How did the relative viability turn out when NCI-H441 was run?
A: 0.235

Q: How did the relative viability turn out when LCLC-97TM1 was run?
A: 0.198

Q: With NCI-H2023 as the cell line, how does the relative viability read?
A: 0.224

Q: Which relative viability does the source give for A-427 here?
A: 0.892

Same assay, conditions: first compound 8 µM

Q: H3255 was tested. Which relative viability did it give?
A: 0.433

Q: Which relative viability does the source give for COR-L23 here?
A: 0.184

Q: For COR-L 105, which relative viability is on record?
A: 0.788

Q: LOU-NH91 was tested. Which relative viability did it give?
A: 0.415

Q: Which relative viability does the source give for ChaGo-K-1 here?
A: 0.233

Q: NCI-H3122 was tested. Which relative viability did it give?
A: 0.164

Q: HOP-62 was tested. Which relative viability did it give?
A: 0.331

Q: Which relative viability does the source give for LU99A here?
A: 0.156

Q: For BEN, which relative viability is on record?
A: 0.492

Q: Which relative viability does the source give for HARA here?
A: 0.237

Q: With HCC-78 as the cell line, how does the relative viability read?
A: 0.934

Q: For NCI-H441, which relative viability is on record?
A: 0.254

Q: With LCLC-97TM1 as the cell line, how does the relative viability read?
A: 0.167

Q: For NCI-H2023, which relative viability is on record?
A: 0.167

Q: Which relative viability does the source give for A-427 here?
A: 0.645

Compound: N[C@@H]1CCCN(c2c(/C=C3\SC(=O)NC3=O)cccc2-c2ccccc2)C1 [AZD1208] + Cc1nc(Nc2ncc(C(=O)Nc3c(C)cccc3Cl)s2)cc(N2CCN(CCO)CC2)n1 [Dasatinib] (partner 0.075 µM)
Experiment: as above
Conditions: first compound 0.08 µM
In short: as §1

Q: Which relative viability does the source give for H3255 here?
A: 0.438

Q: COR-L23 was tested. Which relative viability did it give?
A: 0.471

Q: Which relative viability does the source give for COR-L 105 here?
A: 0.34

Q: For LOU-NH91, which relative viability is on record?
A: 0.57

Q: For ChaGo-K-1, which relative viability is on record?
A: 0.657

Q: Which relative viability does the source give for NCI-H3122 here?
A: 0.833

Q: HOP-62 was tested. Which relative viability did it give?
A: 0.679
